Laboratory results taken from patent US8022061B2, “N-aryl pyrazole compounds, compositions, and methods for their use” (Amgen Inc., priority 2006, dated 2011).

Each compound was assayed on C57B6 mice (assay: Glucose lowering effect after oral glucose challenge in C57B6 mice). Settings: male C57B6 mice, p.o. 30 minutes before oral glucose 3 g/kg; blood glucose before, 20 and 50 minutes after challenge; relative to control group.
Assay type: in vivo
Protocol: The following example describes the glucose lowering effect of compounds observed in vivo.
Male C57B6 mice were placed into control and treatment groups having similar averages of body weights. Then, animals were dosed with vehicle (control group) or test article (5 ml/kg, p.o.). Thirty minutes after dosing, glucose (3 g/kg) was orally administered in each animal. Blood samples were collected just before, 20 minutes and 50 minutes after glucose challenge and glucose concentrations in the samples was assessed. The values in Table 2 represent the observed % AUC reduction of blood glucose in the treated animals relative to the control group.
With COCc1c(C(=O)NCc2c(CO)ncn2C)cnn1-c1ncc(C)c(-c2ccoc2)n1 [1-[4-(3-Furyl)-5-methylpyrimidin-2-yl]-N-[{4-(hydroxymethyl)-1-methyl-1H-imidazol-5-yl]methyl}-5-(methoxymethyl)-1H-pyrazole-4-carboxamide] the “% AUC reduction in glucose levels” value was 29%.
With CCCc1c(C(=O)NCc2c(CO)ncn2C)cnn1-c1ncc(C)c(-c2ccoc2)n1 [1-[4-(3-Furyl)-5-methylpyrimidin-2-yl]-N-{[4-(hydroxymethyl)-1-methyl-1H-imidazol-5-yl]methyl}-5-propyl-1H-pyrazole-4-carboxamide] the “% AUC reduction in glucose levels” value was 19%.
With CCOCc1c(C(=O)NCc2cncn2C)cnn1-c1ncc(C)c(NC2CCCCC2)n1 [1-[4-(Cyclohexylamino)-5-methylpyrimidin-2-yl]-5-(ethoxymethyl)-N-[(1-methyl-1H-imidazol-5-yl)methyl]-1H-pyrazole-4-carboxamide] the “% AUC reduction in glucose levels” value was 42%.
CCOCc1c(C(=O)NCc2c(CO)ncn2C)cnn1-c1ncc(Cl)c(-c2cccs2)n1 [1-[5-Chloro-4-(2-thienyl)pyrimidin-2-yl]-5-(ethoxymethyl)-N-{[4-(hydroxymethyl)-1-methyl-1H-imidazol-5-yl]methyl}-1H-pyrazole-4-carboxamide] was tested, and the “% AUC reduction in glucose levels” value was 41%.
With CCCCc1c(C(=O)NCc2c(C)ncn2C(C)(C)C(=O)O)cnn1-c1ncc(C)c(-c2cccs2)n1 [2-(5-{[({5-Butyl-1-[5-methyl-4-(2-thienyl)pyrimidin-2-yl]-1H-pyrazol-4-yl}carbonyl)amino]methyl}-4-methyl-1H-imidazol-1-yl)-2-methylpropanoic acid] the “% AUC reduction in glucose levels” value was 15%.
COCCc1c(C(=O)NCc2cncn2C)cnn1-c1ncc(C)c(-c2cccs2)n1 [5-(2-Methoxyethyl)-N-[(1-methyl-1H-imidazol-5-yl)methyl]-1-[5-methyl-4-(2-thienyl)pyrimidin-2-yl]-1H-pyrazole-4-carboxamide] was tested, and the “% AUC reduction in glucose levels” value was 25%.
With CCOCc1c(C(=O)NCc2cncn2C)cnn1-c1ncc(C)c(-c2ccco2)n1 [5-(Ethoxymethyl)-1-[4-(2-furyl)-5-methylpyrimidin-2-yl]-N-[(1-methyl-1H-imidazol-5-yl)methyl]-1H-pyrazole-4-carboxamide] the “% AUC reduction in glucose levels” value was 51%.
With CCOCc1c(C(=O)NCc2cncn2C)cnn1-c1ncc(C)c(N2CCCCC2)n1 [5-(Ethoxymethyl)-N-((1-methyl-1H-imidazol-5-yl)methyl)-1-(5-methyl-4-(piperidin-1-yl)pyrimidin-2-yl)-1H-pyrazole-4-carboxamide] the “% AUC reduction in glucose levels” value was 42%.
With CCOCc1c(C(=O)NCc2cncn2C)cnn1-c1ncc(C)c(-c2cccs2)n1 [5-(Ethoxymethyl)-N-((1-methyl-1H-imidazol-5-yl)methyl)-1-(5-methyl-4-(thiophen-2-yl)pyrimidin-2-yl)-1H-pyrazole-4-carboxamide] the “% AUC reduction in glucose levels” value was 16%.
In the case of CCOCc1c(C(=O)NCc2cncn2C)cnn1-c1ncc(C)c(-c2ccccc2)n1 [5-(Ethoxymethyl)-N-[(1-methyl-1H-imidazol-5-yl)methyl]-1-(5-methyl-4-phenylpyrimidin-2-yl)-1H-pyrazole-4-carboxamide], the “% AUC reduction in glucose levels” value is reported as 35%.
With CCOCc1c(C(=O)NCc2cncn2C)cnn1-c1ncc(C)c(N2CCCC2)n1 [5-(Ethoxymethyl)-N-[(1-methyl-1H-imidazol-5-yl)methyl]-1-(5-methyl-4-pyrrolidin-1-ylpyrimidin-2-yl)-1H-pyrazole-4-carboxamide] the “% AUC reduction in glucose levels” value was 18%.
For CCOCc1c(C(=O)NCc2cncn2C)cnn1-c1ncc(C)c(-c2nccs2)n1 [5-(Ethoxymethyl)-N-[(1-methyl-1H-imidazol-5-yl)methyl]-1-[5-methyl-4-(1,3-thiazol-2-yl)pyrimidin-2-yl]-1H-pyrazole-4-carboxamide], the “% AUC reduction in glucose levels” value was 41%.
For CCOCc1c(C(=O)NCc2cncn2C)cnn1-c1ncc(C)c(N2CC(F)(F)C(F)(F)C2)n1 [5-(Ethoxymethyl)-N-[(1-methyl-1H-imidazol-5-yl)methyl]-1-[5-methyl-4-(3,3,4,4-tetrafluoropyrrolidin-1-yl)pyrimidin-2-yl]-1H-pyrazole-4-carboxamide], the “% AUC reduction in glucose levels” value was 11%.
CCOCc1c(C(=O)NCc2cncn2C)cnn1-c1ncc(C)c(-c2ccsc2)n1 [5-(Ethoxymethyl)-N-[(1-methyl-1H-imidazol-5-yl)methyl]-1-[5-methyl-4-(3-thienyl)pyrimidin-2-yl]-1H-pyrazole-4-carboxamide] was tested, and the “% AUC reduction in glucose levels” value was 51%.
With CCOCc1c(C(=O)NCc2c(CO)ncn2C)cnn1-c1ncc(C)c(-c2cccs2)n1 [5-(Ethoxymethyl)-N-{[4-(hydroxymethyl)-1-methyl-1H-imidazol-5-yl]methyl}-1-[5-methyl-4-(2-thienyl)pyrimidin-2-yl]-1H-pyrazole-4-carboxamide] the “% AUC reduction in glucose levels” value was 35%.
With CCCCc1c(C(=O)NCc2cnc3ccccn23)cnn1-c1ncc(Cl)c(NC2CC2)n1 [5-Butyl-1-[5-chloro-4-(cyclopropylamino)pyrimidin-2-yl]-N-(imidazo[1,2-a]pyridin-3-ylmethyl)-1H-pyrazole-4-carboxamide] the “% AUC reduction in glucose levels” value was 32%.
CCCCc1c(C(=O)NCc2cncn2C)cnn1-c1ncc(Cl)c(NC2CC2)n1 [5-Butyl-1-[5-chloro-4-(cyclopropylamino)pyrimidin-2-yl]-N-[(1-methyl-1H-imidazol-5-yl)methyl]-1H-pyrazole-4-carboxamide] was tested, and the “% AUC reduction in glucose levels” value was 7%.
For CCCCc1c(C(=O)NCc2cnc3ccccn23)cnn1-c1ncc(C)c(N2CCCC2)n1 [5-Butyl-N-(imidazo[1,2-a]pyridin-3-ylmethyl)-1-(5-methyl-4-pyrrolidin-1-ylpyrimidin-2-yl)-1H-pyrazole-4-carboxamide], the “% AUC reduction in glucose levels” value was 34%.
For CCCCc1c(C(=O)NCc2c(C)nc3ccccn23)cnn1-c1ncc(C)c(-c2cccs2)n1 [5-Butyl-N-[(2-methylimidazo[1,2-a]pyridin-3-yl)methyl]-1-[5-methyl-4-(2-thienyl)pyrimidin-2-yl]-1H-pyrazole-4-carboxamide], the “% AUC reduction in glucose levels” value was 35%.
CCCCc1c(C(=O)NCc2cnc3cc(C(=O)OC)ccn23)cnn1-c1ncc(Cl)c(NC2CC2)n1 [Methyl 3-{[({5-butyl-1-[5-chloro-4-(cyclopropylamino)pyrimidin-2-yl]-1H-pyrazol-4-yl}carbonyl)amino]methyl}imidazo[1,2-a]pyridine-7-carboxylate] was tested, and the “% AUC reduction in glucose levels” value was 24%.
In the case of CCCc1c(C(=O)NCc2c(CO)ncn2C)cnn1-c1ncc(C)c(N2CCOCC2)n1 [N-{[4-(Hydroxymethyl)-1-methyl-1H-imidazol-5-yl]methyl}-1-(5-methyl-4-morpholin-4-ylpyrimidin-2-yl)-5-propyl-1H-pyrazole-4-carboxamide], the “% AUC reduction in glucose levels” value is reported as 6%.
CCCc1c(C(=O)NCc2c(CO)ncn2C)cnn1-c1ncc(C)c(-c2cccs2)n1 [N-{[4-(Hydroxymethyl)-1-methyl-1H-imidazol-5-yl]methyl}-1-[5-methyl-4-(2-thienyl)pyrimidin-2-yl]-5-propyl-1H-pyrazole-4-carboxamide] was tested, and the “% AUC reduction in glucose levels” value was 35%.
In the case of COCc1c(C(=O)NCc2c(CO)ncn2C)cnn1-c1ncc(C)c(N2CCCCC2)n1 [N-{[4-(Hydroxymethyl)-1-methyl-1H-imidazol-5-yl]methyl}-5-(methoxymethyl)-1-(5-methyl-4-piperidin-1-ylpyrimidin-2-yl)-1H-pyrazole-4-carboxamide], the “% AUC reduction in glucose levels” value is reported as 14%.
